The text below walks through data of patent publication US20230020329A1, “Annelated 9-hydroxy-1,8-dioxo-1,3,4,8-tetrahydro-2H-pyrido[1,2-a]pyrazine-7-carboxamides as HIV integrase inhibitors, methods of preparation and application thereof” (priority 2019, published 2023).

pEC50: −log10 of the molar value. Converted amounts (≈) assume the structure as drawn. Read-outs that look alike come from different tables or passages of the source.

Data set [1] is described as follows: Thermodynamic (shake-flask) solubility. The data set is classed as physicochemical. Conditions: for solubility at 24 h: thermodynamic from solid. On the procedure:
The test compound of general formula 1 or 2 (2 mg) was weighed into a glass vial. The pION universal buffer (0.5 ml) with pH 7.4 or deionized water was added to appropriate vials. The vials were tightly closed with a lid, placed on a rotating shaker, and incubated for 24 hours to balance the solution and the solid phase at the saturation point. Each resulting solution (200 μl) was taken (in duplicate) from the vials, placed in a 96-well MultiScreen Solubility Filter Plate (Millipore), and filtered using vacuum ([…]) into a polypropylene plate with a U-shaped bottom. If necessary, the filtrates were diluted with an appropriate buffer (water). Then, 120 μl of the filtarate (or a diluted filtrate) was transferred to a 96-well plate with a UV-transparent bottom and 60 μl/well of acetonitrile and 20 μl/well of DMSO were added and thoroughly mixed with a multichannel pipette (acetonitrile and DMSO were added to obtain a required composition of calibration standards, as described below). The optical density of the resulting solutions was measured on a multifunction Infinite 200 PRO plate reader in the wavelength range from 240 nm to 400 nm in steps of 10 nm. The value of ODλ for solutions was assessed at a wavelength chosen for plotting a calibration curve.
The concentration of a substance in the solution after the solubility test was evaluated using a calibration curve. A stock solution in DMSO with a concentration of 2 mg/ml was prepared from a separate sample. […] The range of final concentrations of the calibration curve was 0.2; 0.1; 0.05; 0.025; 0.0125; 0.00625, and 0 mg/ml. Calibration solutions were prepared in a 96-well UV plate as follows: 20 μl of a 10-fold stock solution in DMSO, 60 μl of acetonitrile, and 120 μl of the appropriate buffer were added to the well and stirred. The optical density of the resulting solutions was measured on a multifunction Infinite 200 PRO plate reader in the wavelength range from 240 nm to 400 nm with a step of 10 nm. The optimal wavelength typically corresponding to the absorption maximum was chosen, and a linear dependence of OD at a given wavelength on the concentration of the compound was obtained.
The concentration of the compound in the filtrate after the solubility test was calculated according to the formula:
shake-flask solubility=(ODλfiltrate−ODλblank)/(slope×1.67×filtrate dilution)
wherein slope means the slope of the calibration curve; 1.67 is the filtrate acetonitrile+DMSO dilution ratio; filtrate dilution is an additional dilution of the filtrate, if applicable.

The subject of another data set is HIV-1 (IIIB strain). Briefly: Anti-HIV cytoprotection assay (XTT), HIV-1 IIIB in CEM-SS cells. Particulars: CEM-SS cell line, read-out: Inhibitory activity (EC50) against HIV-1 (IIIB strain). It counts as cell-based. In short, it runs like this:
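CEM-SS cells infected with a pre-titrated virus dose killing 85–95% of cells by day 6; protection from HIV-induced death read by XTT formazan. Compounds screened in triplicate at 30 and 10 nM, actives retested at 2 nM; AZT six-concentration curve on each plate as positive control.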

Another data set deals with HIV. Particulars: depending on the method of analysis; read-out: Inhibitory activity EC50 (literature); cited from earlier work.
In data set [2] the test system is HIV-1 (NL4.3 strain) carrying the GFP reporter gene (NL4.3-GFP). Briefly: HIV-1 NL4.3-GFP infection of SupT1 cells. It counts as cell-based. Particulars: Human immunodeficiency virus 1, SUP-T1, read-out: Inhibitory activity (EC50) of HIV-1 (NL4.3 strain) carrying the GFP reporter gene. On the procedure:
6. Inhibitory Activity of HIV-1 (NL4.3 Strain) Carrying the GFP Reporter Gene (NL4.3-GFP) in the SuPT1 Cell Line.
The evaluation was done by RetroVirox Inc. (San Diego, Calif., USA). SupT1 cells were infected with the HIV NL4.3 strain carrying the green fluorescent protein gene (NL4.3-GFP). The virus sample was produced by transfection of 293T cells with proviral DNA. The sample was frozen 48 hours after transfection and stored until use. To enhance the efficiency of infection, a suspension of SupT1 cells was precipitated from the infectious mixture by centrifugation. Test substances were added to the cells immediately before adding the virus. After 2 hours of incubation, the infectious mixture was replaced with a fresh culture medium containing test samples. The effectiveness of the infection was determined after 45 hours by counting the percentage of fluorescent cells in comparison with uninfected cell cultures. The cytotoxicity of the test compounds was determined in parallel on the same, but not infected, SupT1 cell line using the XTT reagent. Serial tenfold dilutions of the samples (starting from 10 μM when determining antiviral activity or from 100 μM for determining cytotoxicity). As a negative control, 0.1% DMSO was used. The values of EC50 were calculated. The quality of the tests was determined using the following controls: signal-to-noise ratio, integrase inhibitor raltegravir (1 μM), and test reproducibility.

[3] abbreviates: aqueous buffer, pION universal buffer pH 7.4, 24 h, read-out: Solubility, pH 7.4, value.
[4] abbreviates: deionized water, 24 h, read-out: Solubility, water, value.
[5] abbreviates: Human immunodeficiency virus 1, IIIB, CEM-SS.
[6] abbreviates: deionized water, water, read-out: Solubility in water.

In the case of `C[C@H]1CO[C@@H]2Cn3cc(C(=O)NCc4cccs4)c(=O)c(O)c3C(=O)N12` [Compound 1.1.1, (3S,11aR)-6-hydroxy-3-methyl-5,7-dioxo-N-(2-thienylmethyl)-2,3,5,7,11,11a-hexahydro[1,3]oxazolo[3,2-a]pyrido[1,2-d]pyrazine-8-carboxamide], the values for the solubility at 24 h in data set [1] (setting [3]) and in data set [1] (setting [4]) were 24 µg/mL (≈ 63.9 µM) and 33 µg/mL (≈ 87.9 µM), respectively. For the same compound, the pEC50 in the data set with HIV-1 (IIIB strain) (setting [5]) was 8.84.
For `Cc1cc2c(cc1CNC(=O)c1cn3c(c(O)c1=O)C(=O)N1[C@@H](C)CO[C@@H]1C3)OCCO2` [Compound 1.1.36, (3S,11aR)-6-hydroxy-3-methyl-N-[(7-methyl-2,3-dihydro-1,4-benzodioxin-6-yl)methyl]-5,7-dioxo-2,3,5,7,11,11a-hexahydro[1,3]oxazolo[3,2-a]pyrido[1,2-d]pyrazine-8-carboxamide], in that order: 70 µg/mL (≈ 159 µM), 56 µg/mL (≈ 127 µM) and 7.52 to 8.00.
For the compound `C[C@@H]1CCO[C@H]2Cn3cc(C(=O)NCc4ccc(F)cc4F)c(=O)c(O)c3C(=O)N12` [DTG, Dolutegravir], the pEC50 in the data set on HIV was 8.13 to 8.96.
As to `C[C@H]1CO[C@@H]2Cn3cc(C(=O)NCc4ncccc4F)c(=O)c(O)c3C(=O)N12` [Compound 1.1.16, (3S,11aR)-6-hydroxy-3-methyl-N-[(3-fluoropyridin-2-yl)methyl]-5,7-dioxo-2,3,5,7,11,11a-hexahydro[1,3]oxazolo[3,2-a]pyrido[1,2-d]pyrazine-8-carboxamide], the negative-log EC50 (pEC50) in data set [2] was 7.98; with HIV-1 (IIIB strain) (setting [5]), 7.52 to 8.00.
`C[C@H]1CO[C@@H]2Cn3cc(C(=O)NCc4cccc5cccnc45)c(=O)c(O)c3C(=O)N12` [Compound 1.1.54, (3S,11aR)-6-hydroxy-3-methyl-N-(quinolin-8-ylmethyl)-5,7-dioxo-2,3,5,7,11,11a-hexahydro[1,3]oxazolo[3,2-a]pyrido[1,2-d]pyrazine-8-carboxamide]: the solubility at 24 h in data set [1] (setting [3]) came to 6 µg/mL (≈ 14.3 µM); in data set [1] (setting [4]), 10 µg/mL (≈ 23.8 µM). Moreover, the negative-log EC50 (pEC50) with HIV-1 (IIIB strain) (setting [5]) was 8.66.
For the compound `C[C@H]1CO[C@@H]2Cn3cc(C(=O)NCc4ccc(F)nc4F)c(=O)c([O-])c3C(=O)N12.[Na+]` [Compound 1.1.20, Sodium (3S,11aR)-8-({[(2,6-difluoropyridin-3-yl)methyl]amino}carbonyl)-3-methyl-5,7-dioxo-2,3,5,7,11,11a-hexahydro[1,3]oxazolo[3,2-a]pyrido[1,2-d]pyrazin-6-olate], the solubility at 24 h is 1680 µg/mL in data set [1] (setting [3]) and 2680 µg/mL in data set [1] (setting [6]). Moreover, in data set [1] (deionized water, 24 h), the “Solubility, water, value” came to 2679 µg/mL. Further, the negative logarithm of the EC50 (pEC50) in the data set with HIV-1 (IIIB strain) was 8.32.
Take `C[C@H]1CO[C@@H]2Cn3cc(C(=O)NCc4c(F)cncc4F)c(=O)c(O)c3C(=O)N12` [Compound 1.1.24, (3S,11aR)-6-hydroxy-N-[(3,5-difluoropyridin-4-yl)methyl]-3-methyl-5,7-dioxo-2,3,5,7,11,11a-hexahydro[1,3]oxazolo[3,2-a]pyrido[1,2-d]pyrazine-8-carboxamide]: the results for the solubility at 24 h in data set [1] (setting [3]) and in data set [1] (setting [4]) were 380 µg/mL (≈ 935 µM) and 347 µg/mL (≈ 854 µM), respectively. In the data set on HIV-1 (IIIB strain) (setting [5]), the negative-log EC50 (pEC50) is 8.58.
For `C[C@H]1CO[C@@H]2Cn3cc(C(=O)NCc4nn(C)c(Cl)c4Cl)c(=O)c(O)c3C(=O)N12` [Compound 1.1.7, (3S,11aR)-6-hydroxy-N-[(4,5-dichloro-1-methyl-1H-pyrazol-3-yl)methyl]3-methyl-5,7-dioxo-2,3,5,7,11,11a-hexahydro[1,3]oxazolo[3,2-a]pyrido[1,2-d]pyrazine-8-carboxamide], in that order: 318 µg/mL (≈ 719 µM), 318 µg/mL (≈ 719 µM) and 9.23.
Take `C[C@H]1CO[C@@H]2Cn3cc(C(=O)NCc4nccc5ccccc45)c(=O)c(O)c3C(=O)N12` [Compound 1.1.55, (3S,11aR)-6-hydroxy-N-(isoquinolin-1-ylmethyl)-3-methyl-5,7-dioxo-2,3,5,7,11,11a-hexahydro[1,3]oxazolo[3,2-a]pyrido[1,2-d]pyrazine-8-carboxamide]: the results for the pEC50 (in data set [2]; with HIV-1 (IIIB strain) (setting [5])) were 7.84 and 8.00 to 8.70, respectively.
For the compound `C[C@H]1CO[C@@H]2Cn3cc(C(=O)NCc4ccncc4F)c(=O)c(O)c3C(=O)N12` [Compound 1.1.23, (3S,11aR)-6-hydroxy-3-methyl-N-[(3-fluoropyridin-4-yl)methyl]-5,7-dioxo-2,3,5,7,11,11a-hexahydro[1,3]oxazolo[3,2-a]pyrido[1,2-d]pyrazine-8-carboxamide], the solubility at 24 h came out at 91 µg/mL (≈ 234 µM) in data set [1] (setting [3]) and 78 µg/mL (≈ 201 µM) in data set [1] (setting [4]). Also, the negative-log EC50 (pEC50) with HIV-1 (IIIB strain) (setting [5]) was 7.52 to 8.00.
For the compound `C[C@H]1CO[C@@H]2Cn3cc(C(=O)NCc4nc5ccccc5s4)c(=O)c(O)c3C(=O)N12` [Compound 1.1.37, (3S,11aR)-N-(1,3-benzothiazol-2-ylmethyl)-6-hydroxy-3-methyl-5,7-dioxo-2,3,5,7,11,11a-hexahydro[1,3]oxazolo[3,2-a]pyrido[1,2-d]pyrazine-8-carboxamide], the solubility at 24 h in data set [1] (setting [3]) and in data set [1] (setting [4]) was 21 µg/mL (≈ 49.2 µM) in each case. Further, the pEC50 with HIV-1 (IIIB strain) (setting [5]) is 8.71.
For `C[C@H]1CO[C@@H]2Cn3cc(C(=O)NCc4ccc5nonc5c4)c(=O)c(O)c3C(=O)N12` [Compound 1.1.48, (3S,11aR)-N-(2,1,3-benzoxadiazol-5-ylmethyl)-6-hydroxy-3-methyl-5,7-dioxo-2,3,5,7,11,11a-hexahydro[1,3]oxazolo[3,2-a]pyrido[1,2-d]pyrazine-8-carboxamide], the solubility at 24 h in data set [1] (setting [3]) came out at 3.2 µg/mL (≈ 7.78 µM); in data set [1] (setting [6]) it was 2.85 µg/mL (≈ 6.93 µM). Besides, in data set [1] (deionized water, 24 h), the “Solubility, water, value” worked out at 2.85 µg/mL (≈ 6.93 µM). The pEC50 in the data set with HIV-1 (IIIB strain) (setting [5]) is 9.37.
Consider `Cc1cc(CNC(=O)c2cn3c(c(O)c2=O)C(=O)N2[C@@H](C)CO[C@@H]2C3)c2ccccc2n1` [Compound 1.1.51, (3S,11aR)-6-hydroxy-3-methyl-N-(2-methylquinolin-4-ylmethyl)-5,7-dioxo-2,3,5,7,11,11a-hexahydro[1,3]oxazolo[3,2-a]pyrido[1,2-d]pyrazine-8-carboxamide], for which the figures for the solubility at 24 h in data set [1] (setting [3]) and in data set [1] (setting [4]) were 8 µg/mL (≈ 18.4 µM) and 31 µg/mL (≈ 71.4 µM), respectively. Besides, in the data set on HIV-1 (IIIB strain) (setting [5]), the negative logarithm of the EC50 (pEC50) was 8.00 to 8.70.
For `C[C@@H]1CCO[C@H]2Cn3cc(C(=O)NCc4ccc(F)nc4F)c(=O)c(O)c3C(=O)N12` [Compound 1.2.1, (4R,12aS)-7-hydroxy-N-[(2,6-difluoropyridin-3-yl)methyl]-4-methyl-6,8-dioxo-3,4,6,8,12,12a-hexahydro-2H-pyrido[1′,2′:4,5]pyrazino[2,1-b][1,3]oxazine-9-carboxamide], the figures for the solubility at 24 h in data set [1] (setting [3]) and in data set [1] (setting [4]) were 80 µg/mL (≈ 190 µM) and 57 µg/mL (≈ 136 µM), respectively. Also, the negative logarithm of the EC50 (pEC50) in the data set on HIV-1 (IIIB strain) (setting [5]) was 8.29.
